Assays:
Assay type in all cases: physicochemical
[1] = Reduction-induced cleavage with 100 equivalents of DTT, HPLC/MS; settings: 100 equiv DTT, DMSO/aqueous buffer pH 7.0, 37° C., argon
Procedure: The experiment comprised incubation of Compound B with 100 equivalents of the reducing agent DTT (0.1 mL of 2 M solution), 1.0 mL DMSO in aqueous buffer (pH=7.0), at 37° C. under argon atmosphere. Three sets of samples were analyzed by HPLC/MS: at 1 hour, 6 hours, and at 24 hours. […] This structure was thereafter maintained throughout the experiment.
Importantly however, HPLC/MS also indicated the formation of Compound B3, indicating cleavage of Compound B2, at the carbamate bond, with release of the phenolic moiety, Compound B3:
There was evidence for such cleavage, with release of Compound B3, already at one hour of incubation, where 30% cleavage was detected. This increased to 90% of cleaved product at 6 hours, and full cleavage by 24 hours.

[2] = Reduction-induced cleavage with excess dithiothreitol (15 equiv), HPLC/MS; settings: 15 equiv DTT, DMSO/phosphate buffer pH 7, 37° C., argon
Procedure: Dithiothreitol (DTT) is a reducing agent; once oxidized, it forms a stable six-membered ring, with an internal disulfide bond. Disulfide compound A was treated with excess dithiothreitol (15 equiv, aq. 0.5M, pH adjusted to 7 with phosphate buffer solution) in DMSO and phosphate buffer solution (pH 7) at 37° C. under an argon atmosphere. Two sets of samples were analyzed by HPLC/MS: at 6 and at 24 hours.
As expected, the peak at 24 hours was of larger amplitude (70% vs. 30%).

[3] = Stability of Compound 5 in DMSO solution (non-reductive environment), HPLC-MS; settings: room temperature, 24 hours, no reducing agent
Procedure: (§1) A DMSO solution of Compound 5 was incubated at room temperature for 24 hours. […] The Compound was then incubated at room temperature with one equivalent of the reducing agent tris (2-carboxyethyl) phosphine (TCEP). […] Intact Compound 5; (ii). a product corresponding to Compound 5 with two reduced thiol groups (Product 1); (iii). a product corresponding to cleaved Fragment A; and (iv). a product corresponding to cleaved Fragment B.
(§2) However, in reductive conditions, conversion of the disulfide into free thiol groups takes place. Importantly, this step is evidently followed by an intramolecular reaction, with molecular cleavage at the carbamate moiety, conceivably related to nucleophilic attack on the respective carbonyl by a thiol or a thiolate group, conveniently located at the sixth atom position. Therefore, the Compound manifests selective reduction-dependent cleavage. The site of the nucleophilic attack is described in the following Scheme 4: […]

[4] = Reduction-induced cleavage with one equivalent of TCEP, HPLC-MS; settings: room temperature, 18 hours
Procedure: as §1, §2

## C[C@]12CC[C@@H]3c4cc(F)c(OC(=O)N(CCCO)C5CCSSC5)cc4CC[C@H]3[C@@H]1CC[C@@H]2OCCCOC(C(F)(F)F)(C(F)(F)F)C(F)(F)F (stereo partly drawn) [Compound B]
[1]; 6 hours
  cleavage with release of Compound B3: 90%
[1]; 24 hours
  cleavage with release of Compound B3: full cleavage
[1]; one hour
  cleavage with release of Compound B3: 30%
  reduction of the disulphide bond (conversion of Compound B to Compound B2): full conversion

## CCCCCCN(C(=O)Oc1ccccc1)[C@H]1CCSSC1 [Compound A]
[2]; 6 hours
  cleavage (peak amplitude of cleavage product A3): 30%
  reduction of the disulphide bond (A2): clearly visible
[2]; 24 hours
  cleavage (peak amplitude of cleavage product A3): 70%

## C[C@]12CC[C@@H]3c4ccc(OC(=O)N(CCCCCCO)C5CCSSC5)cc4CC[C@H]3[C@@H]1CC[C@@H]2OCCCOC(C(F)(F)F)(C(F)(F)F)C(F)(F)F (stereo partly drawn) [Compound 5]
[3]
  stability of the DMSO solution by HPLC-MS: stable and intact
[4]
  HPLC-MS products after incubation with reducing agent (intact compound, reduced Product 1, cleaved Fragment A, cleaved Fragment B): four distinct peaks

Reference: patent publication US11286246B2, “Pro-drugs and related methods” (Aposense LTD., priority 2015, dated 2022)
